Results as given in patent US11007250B2, “Methods and kits for treating pain” (Duke University, priority 2017, dated 2021).

Key:
naive mice = test: Basal pain in naive mice (von Frey test, spontaneous pain); assay type: in vivo, mouse; details: RMP1-14 5 μg, Nivolumab 10 μg
[1] = system: small-diameter neurons of whole-mount DRG; test: Whole-cell patch clamp recordings in whole mount DRGs ex vivo; assay type: cell-based, mouse; details: WT whole mount DRG; sPD-1 30 ng/ml, Nivolumab 300 ng/ml
Method: Whole-cell patch clamp recordings in whole mount DRGs of mice ex vivo. L4-L5 DRGs were carefully removed 4 days after sham surgery or CCI surgery and placed in cold oxygenated ACSF. The connective tissue was gently removed under a microscope and the ganglia were digested with a mixture of 0.4 mg/mL trypsin (Sigma) and 1.0 mg/ml type-A collagenase (Sigma) for 30 min at 37° C. The intact ganglia were then incubated in ACSF oxygenated with 95% O2 and 5% CO2 at 28° C. for at least 1 h before transferring them to the recording chamber. DRG neurons were visualized with a 40× water-immersion objective using a BX51WI microscope (Olympus). Whole-cell current and voltage recordings were acquired with an Axon700B amplifier. Patch pipettes (4-7 MO) were pulled from borosilicate glass capillaries on P-97 puller. The recording chamber (300 μl) was continuously superfused (3-4 ml/min). Series resistance was compensated for (>80%), and leak subtraction was performed. The pipette solution contained (in mM): 140 KCl, 2 MgCl2, 10 Hepes, 2 Mg-ATP, pH 7.4. Osmolarity was adjusted to 290-300 mOsm. Data was acquired with a Digidata 1322A acquisition system (molecular devices) using pCLAMP 9.0 software. Signals were low-pass filtered at 5 kHz, sampled at 10 kHz and analyzed offline.

[2] = system: spinal wide dynamic range (WDR) neurons; test: Extracellular recording of spinal WDR neurons in bone cancer rats in vivo; set-up: species or system rat; details: PD-L1 20 μg i.t., day 14; Nivolumab 10 μg i.t., day 8
Method: Rat bone cancer pain model. Tumor cells were extracted from the ascetic fluid of rats that received Walker 256 rat mammary gland carcinoma cells, and suspension of 1×10^8/ml tumor cells in PBS was prepared. The inoculation was performed as previously described (Yang, Y, et al. J. Neurosci., 2015, 35:7950-7963). Briefly, rats were anesthetized with sodium pentobarbital (50 mg/kg, intraperitoneal). The right leg was shaved, and the skin was disinfected with iodine tincture and 75% ethanol. A 22-gauge needle was inserted at the site of the intercondylar eminence of the right tibia and was then replaced with a 10 μl microinjection syringe containing a 4 μl suspension of tumor cells (4×10^5). The contents of the syringe were slowly injected into the tibia cavity. To prevent leakage of cells outside the bone, the injection site was sealed with bone wax. […]
Extracellular recording in rat spinal cord in vivo. […] The electrocardiogram was monitored, and the heart rate was maintained at 250-300/min. […] WDR neurons responding to innocuous stimulation and to a greater degree, noxious stimulation of the RF were analyzed in the present study. The recorded signals were amplified with a microelectrode amplifier (1800 A-M System, USA) and fed to computer via a CED 1401 interface for off-line analysis using the Spike 2 software (Cambridge Electronic Design, Cambridge, UK). […]

melanoma-bearing mice = test: Mouse melanoma model: spontaneous pain, von Frey test, CPP; assay type: in vivo; details: MCI-4w
[3] = system: mice with LLC bone cancer; test: Bone cancer pain model, Lewis lung cancer (LLC) cells in tibia; assay type: in vivo, mouse; details: Nivolumab 10 mg/kg IV on day 0, 3, 7, 10, 14
From the text: (B) Cancer pain, as measured by mechanical pain sensitivity (paw withdrawal threshold) in von Frey test. (C) Mechanical allodynia (paw withdrawal frequency to a subthreshold filament, 0.4 g) in von Frey test. (D) Cold allodynia (lifting and licking time) in acetone test. (E) Heat hyperalgesia (paw withdrawal latency) in Hargreaves test. (B-E) n=9-11 mice in each group; Two-way ANOVA with Bonferroni's hoc-test; *P<0.05, compared with baseline; #P<0.05, compared with Saline group.

[4] = system: tibia bone of mice with LLC bone cancer; test: X-ray bone destruction score in LLC bone cancer model; assay type: in vivo, mouse; details: Nivolumab 10 mg/kg IV; scores 8, 11 and 15 days after tumor inoculation
Method: FIG. 27. Intravenous injections of Nivolumab protect against bone destruction after tumor inoculation. […] (B) X-ray images showing tibia bones 11 days after tumor inoculation. Arrows show bone destruction in saline-treated animals. (C) Bone destruction scores 8, 11, and 15 days after tumor inoculation. The scores were assessed as follows: Score 0, normal bone with no signs of destruction; Scorel, small radiolucent lesions indicative of bone destruction (one to three lesions); Score 2, increased number of lesions (three to six lesions) and loss of medullary bone; Score 3, loss of medullary bone and erosion of cortical bone; Score 4, full-thickness unicortical bone loss; Score 5, full-thickness bicortical bone loss and displaced skeletal fracture. n=9-11 in each group, male, 8-10 weeks; Two-way ANOVA with Bonferroni's hoc-test; *P<0.05, compared with baseline; #P<0.05, compared with Saline group; Scores n were shown by the arrows in B.
Since cancers often become painful after metastasis to bone tissue, we examined the role of PD-1 in a bone cancer pain model following inoculation of Lewis lung cancer (LLC) cells into tibia bone cavity. […]

With “Nivolumab: FDA-approved fully humanized IgG4 monoclonal anti-PD-1 antibody, Bristol-Myers Squibb” the “effect on PD-L1's analgesic effects” value (naive mice; antibody i.pl. 30 min prior to PD-L1 (5 μg, i.pl.)) was “blocked”, the “duration of mechanical allodynia in naive mice” value (naive mice; i.pl., sPD-1 5 μg) was 5 h and the “mechanical allodynia in naive mice” value (naive mice; i.pl., sPD-1 5 μg) was “marked mechanical allodynia”. For the same substance, the “firing rate of action potentials” value [1] was “increased the firing rate”, the “activity of WDR neurons in bone cancer rats” value [2] was “enhanced activities of WDR neurons” and the “mechanical allodynia in melanoma-bearing mice” value (melanoma-bearing mice; sPD-1 5 μg i.pl., siRNA 2 μg peri-sciatic, Nivolumab 3-10 mg/kg i.v., RMP1-14 10 mg/kg i.v.) was “rapid, persistent, and dose-dependent mechanical allodynia”. For the same substance, the “spontaneous pain (licking/flinching) in melanoma-bearing mice” value (melanoma-bearing mice; sPD-1 5 μg i.pl., siRNA 2 μg peri-sciatic, Nivolumab 3-10 mg/kg i.v., RMP1-14 10 mg/kg i.v., SSG 5 μg i.pl.) was “marked spontaneous pain”, the “mechanical allodynia in melanoma-bearing mice after local injection” value (melanoma-bearing mice; intrathecal or intraplantar route) was “evoked mechanical allodynia” and the “cancer pain days after each treatment” value [3] was “sustained beneficial effects on cancer pain relief”. For the same substance, the “tibia bone destruction during cancer progression (X-ray)” value [4] was “protected”.
